Calls of active or inactive are those of the source. The rule behind the calls is not given here. Residues, ends and D or L forms follow the SMILES beside them. *: point of attachment. Cbz = O=C(OCc1ccccc1)*
Assays:
A2780 [1] = test: Induction of apoptosis in cisplatin-resistant human A2780 cells assessed as inhibition of PTEN degradation at 2 uM by immunoblot analysis; type: functional, cell-based
A2780 [2] = test: Induction of apoptosis in cisplatin-resistant human A2780 cells assessed as decrease in pERK1/2 level at 2 uM after 24 hrs by immunoblot analysis; type: functional, cell-based
A2780 [3] = test: Induction of apoptosis in cisplatin-resistant human A2780 cells assessed as enhancement of p21 level at 2 uM by immunoblot analysis; type: functional, cell-based
A2780 [4] = test: Induction of apoptosis in cisplatin-resistant human A2780 cells assessed as decrease in phosphorylated Akt level at 2 uM after 12 hrs by immunoblot analysis; type: functional, cell-based
A2780 [5] = test: Induction of apoptosis in cisplatin-resistant human A2780 cells assessed as accumulation at G2/M phase at 2 uM after 3 hrs by flow cytometry relative to control; type: functional
A2780 [6] = test: Reversal of induction of apoptosis in cisplatin-resistant human A2780 cells assessed as inhibition of cleaved PARP by immunoblot analysis in presence of PTEN-specific siRNA; type: functional, cell-based
A2780 [7] = test: Reversal of induction of apoptosis in cisplatin-resistant human A2780 cells assessed as inhibition of cleaved caspase-7 by immunoblot analysis in presence of PTEN-specific siRNA; type: functional, cell-based
A2780 [8] = test: Induction of apoptosis in cisplatin-resistant human A2780 cells assessed as decrease in CycB1 expression at 2 uM by immunoblot analysis; type: functional, cell-based; conditions: TDE = time-dependent effect
A2780 [9] = test: Induction of apoptosis in cisplatin-resistant human A2780 cells assessed as accumulation at sub-G1 phase at 2 uM after 24 hrs by flow cytometry relative to control; type: functional
A2780 [10] = test: Cell viability of cisplatin-resistant human A2780 cells overexpressing PTEN at 2 uM after 24 hrs by MTT assay; type: functional, cell-based
A2780 [11] = test: Induction of apoptosis in cisplatin-resistant human A2780 cells assessed as inhibition of pPTEN degradation at 2 uM by immunoblot analysis; type: functional, cell-based
A2780 [12] = test: Induction of apoptosis in cisplatin-resistant human A2780 cells assessed as activation of caspase cascade at 2 uM after 6 to 24 hrs by Western blotting; type: functional, cell-based
A2780 [13] = test: Induction of apoptosis in cisplatin-resistant human A2780 cells assessed as accumulation at G2/M phase at 2 uM after 6 hrs by flow cytometry relative to control; type: functional
A2780 [14] = test: Induction of apoptosis in cisplatin-resistant human A2780 cells overexpressing PTEN assessed as enhancement of p21 by Western blotting; type: functional, cell-based
A2780 [15] = test: Reversal of induction of apoptosis in cisplatin-resistant human A2780 cells assessed as accumulation at sub-G1 phase at 2 uM after 24 hrs by flow cytometry in presence of z-VAD-fmk; type: functional, cell-based
A2780 [16] = test: Induction of apoptosis in cisplatin-resistant human A2780 cells assessed as decrease in MDM2 level at 2 uM by immunoblot analysis; type: functional, cell-based; conditions: TDE = time-dependent effect
A2780 [17] = test: Reversal of induction of apoptosis in cisplatin-resistant human A2780 cells assessed as increase of Akt phosphorylation by immunoblot analysis in presence of PTEN-specific siRNA; type: functional, cell-based
A2780 [18] = test: Induction of apoptosis in cisplatin-resistant human A2780 cells assessed as enhancement of p53 phosphorylation at 2 uM by immunoblot analysis; type: functional, cell-based
A2780 [19] = test: Induction of apoptosis in cisplatin-resistant human A2780 cells assessed as increase in TNFR1 expression at 2 uM after 6 to 24 hrs by immunoblot analysis; type: functional, cell-based
A2780 [20] = test: Induction of apoptosis in cisplatin-resistant human A2780 cells assessed as decrease in CycD1 expression at 2 uM by immunoblot analysis; type: functional, cell-based; conditions: TDE = time-dependent effect
A2780 [21] = test: Induction of apoptosis in cisplatin-resistant human A2780 cells assessed as enhancement of p53 level at 2 uM by immunoblot analysis; type: functional, cell-based
A2780 [22] = test: Induction of apoptosis in cisplatin-resistant human A2780 cells assessed as decrease in CycA expression at 2 uM by immunoblot analysis; type: functional, cell-based; conditions: TDE = time-dependent effect
A2780 [23] = test: Induction of apoptosis in cisplatin-resistant human A2780 cells overexpressing PTEN assessed as enhancement of p53 by Western blotting; type: functional, cell-based
A2780 [24] = test: Induction of apoptosis in cisplatin-resistant human A2780 cells assessed as decrease in pERK1/2 level at 2 uM after 48 hrs by immunoblot analysis; type: functional, cell-based
A2780 [25] = test: Reversal of induction of apoptosis in cisplatin-resistant human A2780 cells assessed as decrease of p53 level by immunoblot analysis in presence of PTEN-specific siRNA; type: functional, cell-based
A2780 [26] = test: Induction of apoptosis in cisplatin-resistant human A2780 cells overexpressing PTEN assessed as enhancement of cleaved PARP by Western blotting; type: functional, cell-based
A2780 [27] = test: Induction of apoptosis in cisplatin-resistant human A2780 cells assessed as accumulation at G2/M phase at 2 uM after 12 hrs by flow cytometry relative to control; type: functional
A2780 [28] = test: Induction of apoptosis in cisplatin-resistant human A2780 cells overexpressing PTEN assessed as enhancement of cleaved caspase-3 by Western blotting; type: functional, cell-based
A2780 [29] = test: Induction of apoptosis in cisplatin-resistant human A2780 cells assessed as change in Wee1 level at 2 uM by immunoblot analysis; type: functional, cell-based
A2780 [30] = test: Induction of apoptosis in cisplatin-resistant human A2780 cells assessed as decrease in Cdc2 expression at 2 uM by immunoblot analysis; type: functional, cell-based; conditions: TDE = time-dependent effect
A2780 [31] = test: Induction of apoptosis in cisplatin-resistant human A2780 cells assessed as increase in Fas/CD95 receptor expression at 2 uM after 6 to 24 hrs by immunoblot analysis; type: functional, cell-based
A2780 [32] = test: Reversal of induction of apoptosis in cisplatin-resistant human A2780 cells assessed as decrease of p21 level by immunoblot analysis in presence of PTEN-specific siRNA; type: functional, cell-based
A2780 [33] = test: Induction of apoptosis in cisplatin-resistant human A2780 cells assessed as increase in FasL receptor expression at 2 uM by immunoblot analysis; type: functional, cell-based; conditions: TDE = time-dependent effect
CHO = test: Cell viability of CHO cells after 24 hrs by MTT assay; type: functional, cell-based; conditions: Cricetulus griseus
A2780 [34] = test: Reversal of induction of apoptosis in cisplatin-resistant human A2780 cells assessed as suppression of PTEN by immunoblot analysis in presence of PTEN-specific siRNA; type: functional, cell-based
A2780 [35] = test: Cell viability of human cisplatin-sensitive human A2780 cells after 24 hrs by MTT assay; type: functional, cell-based; conditions: A2780, 24 h
A2780 [36] = test: Reversal of induction of apoptosis in cisplatin-resistant human A2780 cells assessed as inhibition of cleaved caspase-3 by immunoblot analysis in presence of PTEN-specific siRNA; type: functional, cell-based
A2780 [37] = test: Cell viability of cisplatin-resistant human A2780 cells after 24 hrs by MTT assay; type: functional, cell-based; conditions: A2780, 24 h
A2780 [38] = test: Induction of apoptosis in cisplatin-resistant human A2780 cells overexpressing PTEN assessed as inhibition of pAkt by Western blotting; type: functional, cell-based
A2780 [39] = test: Induction of apoptosis in cisplatin-resistant human A2780 cells assessed as decrease in Cdc25C expression at 2 uM by immunoblot analysis; type: functional, cell-based; conditions: TDE = time-dependent effect
A2780 [40] = test: Induction of apoptosis in cisplatin-resistant human A2780 cells assessed as enhancement of p27 level at 2 uM by immunoblot analysis; type: functional, cell-based

CC(C)C[C@@H](C=O)NC(=O)[C@H](CC(C)C)NC(=O)[C@H](CC(C)C)NC(=O)OCc1ccccc1 (Cbz-Leu-Leu-Leu-aldehyde)
Activity (A2780 [1]): Active

O=C1/C(=C/c2ccccc2F)CNC/C1=C\c1ccccc1F
Activity (A2780 [2]): Active
Activity (A2780 [3]): Active
Activity (A2780 [4]): Active
Activity (A2780 [5]): 27.3%
Activity (A2780 [6]): Active
Activity (A2780 [7]): Active
Activity (A2780 [8]): tde
Activity (A2780 [9]): 35.3%
Activity (A2780 [10]): Active
Activity (A2780 [11]): Active
Activity (A2780 [12]): Active
Activity (A2780 [13]): 36.8%
Activity (A2780 [14]): Active
Activity (A2780 [15]): Active
Activity (A2780 [16]): tde
Activity (A2780 [17]): Active
Activity (A2780 [18]): Active
Activity (A2780 [19]): inactive
Activity (A2780 [20]): tde
Activity (A2780 [21]): Active
Activity (A2780 [22]): tde
Activity (A2780 [23]): Active
Activity (A2780 [24]): Active
Activity (A2780 [25]): Active
Activity (A2780 [26]): Active
Activity (A2780 [27]): 57.5%
Activity (A2780 [28]): Active
Activity (A2780 [29]): inactive
Activity (A2780 [30]): tde
Activity (A2780 [31]): inactive
Activity (A2780 [32]): Active
Activity (A2780 [1]): Active
Activity (A2780 [33]): tde
IC50 (CHO): 4600 nM
Activity (A2780 [34]): Active
IC50 (A2780 [35]): 500 nM
Activity (A2780 [36]): Active
IC50 (A2780 [37]): 650 nM
Activity (A2780 [38]): Active
Activity (A2780 [39]): tde
Activity (A2780 [40]): inactive

O=c1cc(N2CCOCC2)oc2c(-c3ccccc3)cccc12
Activity (A2780 [4]): Active

Reference: ChEMBL document CHEMBL1156497, “EF24 induces G2/M arrest and apoptosis in cisplatin-resistant human ovarian cancer cells by increasing PTEN expression” (J Biol Chem, 2007)
